Measurements taken from PubChem BioAssay (NCI).
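Dose response: 5 concentrations. Exposure: 48 h. Format: 96-well plates. Endpoint: linear interpolation; highest concentration if not reached. TGI is the concentration that stops growth completely.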

Key:
Assay in all cases: growth of human tumour cells (NCI), 48 h
NCI-H460 lung = test system: NCI-H460 lung
MDA-MB-231 breast = test system: MDA-MB-231 breast
U251 CNS = test system: U251 CNS
MOLT-4 leukemia = test system: MOLT-4 leukemia
KM12 colon = test system: KM12 colon
COLO 205 colon = test system: COLO 205 colon
RXF 393 renal = test system: RXF 393 renal
SW-620 colon = test system: SW-620 colon
EKVX NSCLC = test system: EKVX NSCLC
TK-10 renal = test system: TK-10 renal

Row | Structure (SMILES) | TGI (NCI-H460 lung) [µM] | TGI (MDA-MB-231 breast) [µM] | TGI (U251 CNS) [µM] | TGI (MOLT-4 leukemia) [µM] | TGI (KM12 colon) [µM] | TGI (COLO 205 colon) [µM] | TGI (RXF 393 renal) [µM] | TGI (SW-620 colon) [µM] | TGI (EKVX NSCLC) [µM] | TGI (TK-10 renal) [µM]
1 | COc1ccc(-c2cc(-c3cc(F)c(Cl)cc3Cl)on2)cc1OC | > 100 | > 100 | > 100 | 49.5 | > 100 | 92.3 | 46.6 | > 100 | > 100 | > 100
2 | C[C@]1(O)O[C@@H]2OCC[C@@H]2C2=C1C(=O)c1ccccc1C2=O | 32.8 | 49.3 | 29.8 | > 100 | 29.8 | 53.9 | 27.2 | 39.8 | 37.1 | 35.5
3 | Cc1ccc(S(=O)(=O)NC(=O)NC(Cc2ccc(O)c(O)c2)C(=O)O)cc1 (stereo not given) | > 100 | > 100 | > 100 | > 100 | > 100 | > 100 | > 100 | 61.9 | > 100 | > 100
4 | C=CCCCCCCCCCOC1C=CC(OC(C)=O)C(COC(C)=O)O1 (stereo not given) | > 100 | > 100 | > 100 | 86 | > 100 | > 100 | > 100 | > 100 | > 100 | > 100
5 | CC(=O)N1c2ccccc2C(C)C1c1[nH]c2ccccc2c1C (stereo not given) | > 100 | 53.5 | 51.5 | 77.3 | 38.4 | 27.9 | 28.4 | > 100 | > 100 | 76.1
6 | NC(=O)CC(N=C1C(=O)OC(C(O)CO)C1=NC(CC(N)=O)C(=O)O)C(=O)O (stereo not given) | > 100 | > 100 | > 100 | > 100 | > 100 | > 100 | > 100 | > 100 | > 100 | > 100
7 | c1ccc(-c2cc(-c3cccs3)c(-c3cccs3)o2)cc1 | > 100 | > 100 | > 100 | > 100 | > 100 | > 100 | > 100 | > 100 | > 100 | > 100
8 | CC1CCc2sc3[nH]c(=S)n(-c4ccccc4)c(=O)c3c2C1 (stereo not given) | > 100 | > 100 | > 100 | > 100 | > 100 | > 100 | > 100 | > 100 | > 100 | > 100
9 | CCc1nc2ccc(C(F)(F)F)cc2[nH]c1=O | > 100 | > 100 | > 100 | > 100 | > 100 | > 100 | > 100 | > 100 | > 100 | > 100
10 | COc1ccc2cc(C(=O)NCCCNC(=O)c3ccc4cc(OC)ccc4c3)ccc2c1 | > 100 | > 74.4 | > 85.4 | > 100 | > 100 | > 100 | 39.6 | > 100 | > 100 | > 100
11 | COC(=O)c1cc(C(=CCC[C@H]2CC[C@@]3(C)C(CCC4C3CC[C@@]3(C)C4CC[C@@H]3C(C)CCCC(C)C)C2)c2cc(Cl)c(OC(=O)c3ccccc3)c(C(=O)OC)c2)cc(Cl)c1OC(=O)c1ccccc1 (stereo not given in full) | > 10 | > 10 | > 10 | > 10 | > 10 | > 10 | > 10 | > 10 | > 10 | > 10
12 | CC[C@@]12C=CC(=S)N(CCSc3ccccc3)[C@@H]1c1c(n(S(=O)(=O)c3ccc(OC)cc3)c3ccccc13)CC2 | > 100 | > 100 | > 100 | > 100 | > 100 | > 100 | > 100 | > 100 | > 100 | > 100
13 | O=[N+]([O-])c1ccc(Cl)cc1N/N=C/c1cccc2cccnc12 | > 100 | > 100 | > 100 | > 100 | > 100 | > 100 | > 100 | > 100 | > 100 | > 100
14 | COc1cc2c(cc1OCCCC(=O)Nc1cc(C(=O)NCCCN(C)C)n(C)n1)N=CC1CCCN1C2=O (stereo not given) | > 100 | > 39.9 | > 20.7 | 3.65 | > 100 | > 23 | > 75.6 | > 25 | > 62 | 14.9
15 | C(=C\c1cc(-c2ccc3ccccc3n2)nc2ccc3ccccc3c12)/c1ccc2ccccc2n1 | > 100 | > 100 | > 100 | > 100 | > 100 | > 100 | > 100 | > 100 | > 100 | > 100
16 | Cn1c(=O)c2c(nc(Nc3ccc(Cl)cc3)n3c(=O)n(-c4ccccc4)c(=O)n23)n(C)c1=O | > 100 | > 100 | > 100 | > 100 | > 100 | > 100 | > 100 | > 100 | > 100 | > 100
17 | C=C(C)[C@@H]1CCC2=C[C@H](CC(C)=CC3=CC(C)=C(O3)[C@@H]1OC)OC2=O | > 100 | 87.3 | > 100 | > 100 | > 100 | > 100 | 56.9 | > 100 | > 100 | > 100
18 | Cc1ccc(S(=O)(=O)N2CCNCCN(S(=O)(=O)c3ccc(C)cc3)CCN(S(=O)(=O)c3ccc(C)cc3)CC2)cc1 | > 100 | > 100 | > 100 | > 100 | > 100 | > 100 | > 100 | > 100 | > 100 | > 100
